“Also recorded” adds a separate entry of the source.
What was measured:
microglia = assay: Microglia depletion and activation in naive/wildtype mice after 5 days of treatment (Iba1 histology); format: in vivo
Protocol: After fixation brains were processed for paraffin embedding by dehydration through increasing ethanol series. Automated immunohistochemistry of paraffin sections was performed on 3 μm paraffin sections mounted on SuperFrost+slides (Thermo Fisher Scientific) and automatically immunostained using the Discovery XT technology (Ventana, Roche Diagnostics). Sections were deparaffinized, rehydrated, subjected to antigen retrieval by heating with CC1 cell conditioning buffer for 28-68 min according to the antibody, incubated for 1-3 hours according to the antibody at room temperature with primary antibody diluted in antibody diluent (Ventana), incubated with the respective biotinylated secondary antibody diluted in antibody diluent, reacted with DABMab kit and counterstained with Hematoxylin II and Bluing reagent (Ventana). Slides were washed with soap in hot tap water and rinsed under cold running tap water to remove the soap, then dehydrated and embedded with Pertex.
Secondary detection antibodies are: Goat anti-rabbit IgG biotinylated (Jackson ImmunoResearch 111-065-144) 1:1000; Goat anti-rabbit IgG biotinylated (Vector BA-1000) 1:200 or 1:1000
For the quantitative evaluation of microglia/astrocyte numbers based on image analysis from histological stained brain sections, a proprietary image analysis platform (ASTORIA, Automated Stored Image Analysis) was developed based on MS Visual Studio 2010 and many functions from Matrox MIL V9 libraries (Matrox Inc, Quebec, Canada).
For the detection and analysis of soma the following sequence of steps was performed: 1. Slides with brain sections for assessment of (brown) IHC stained microglia (Iba1) or astrocyte (GFAP) were scanned with Aperio's Scanscope at 20× magnification. 2. Ran the in-house developed ImageScope (V12.1.0.5029, Aperio Inc., USA) plug-in for creation and export of 3×8-bit RGB tif image tiles (at 20× magnification) for each section. 3. Image processing (for each tif image): A: Performed color deconvolution on each tif image to obtain brown stained image without blue. B: Segmentation of valid sample (brain tissue) from white background through thresholding, morphological closing, filling of holes, opening and elimination of too small objects, resulting in a binary mask of the valid tissue and sample area for the current image. C: Applied an adaptive thresholding technique for the individual segmentation of soma, based on the average gray value of the blue channel of the color-deconvoluted brown image at sufficiently dark regions (indicative for soma). The computed threshold was used for binarization, and after size filtering yielding the soma mask image (within the valid sample region).
FIG. 10: BLZ945 treatment leads to microglia depletion and microglia activation in a dose-dependent manner. […]

MOG Peptide-Induced EAE = assay: MOG peptide-induced EAE; format: in vivo, Mice (C57BL/6J OlaHsd); conditions: 100 and 150 mg/kg p.o. qd, day 14 to day 28 post-immunization; compared to vehicle
Protocol: Mice (C57BL/6J OlaHsd) were commercially purchased from Harlan Laboratories BV (9 weeks old, females). All the animals were allowed to adapt for 7 days prior the start of the experiment and housed in IVC racks (max. 4 mice/XJ Type cage). The animals were given access to food and water ad libitum. Mice were immunized at with subcutaneous injection on the lower back of myelin oligodendrocyte glycoprotein peptide ([…]; in house produced; 200 μg/100 emulsified in 4 mg/ml complete Freund adjuvant (CFA, Sigma). Pertussis toxin (Fluka; 200 ng per mouse) was administered intraperitoneally on day 0 and day 2. Evaluation of EAE: The mice were observed and weighed daily. They were assessed for clinical signs on a scale from 0 to 5, with graduations of 0.5 for intermediate scores. 0: no clinical signs, 1: Limp tail/complete loss of tail tonus; 2: Clear hind limb weakness; 3: Complete bilateral hind limb paralysis; 4: Fore limbs and hind limbs paralysis; 5: Death. Supplementary food and gel food were provided inside the cage once first clinical signs appeared. Animals were treated for 14 days with 100 and 150 mg/kg of BLZ945, qd, p.o. 10 ml/kg from day 14 to day 28 post-immunization. BLZ945 was prepared in 0.5% methylcellulose in water and 0.1% Tween-80.

[1] = 20 mg/kg p.o. qd, naive/wildtype mice

CNC(=O)c1cc(Oc2ccc3nc(N[C@@H]4CCCC[C@H]4O)sc3c2)ccn1 [BLZ945, 4-(2-((1R,2R)-2-hydroxycyclohexylamino)benzothiazol-6-yloxy)-N-methylpicolinamide]
Microglia activation (Iba1-positive microglia size normalized to distal microglia processes), cortex (microglia; [1]): only mildly; also recorded: slight increase in the activation status | Microglia depletion (Iba1-positive microglia numbers), cortex (microglia; [1]): no microglia depletion; also recorded: no microglia reduction | Microglia activation (Iba1-positive microglia size normalized to distal microglia processes), cortex (microglia; 60 mg/kg p.o. qd, naive/wildtype mice): strong microglia activation; also recorded: substantially enhanced the morphological activation status; also recorded: altered microglia morphology | Microglia depletion (microglia; 169 mg/kg p.o. qd, naive animals, all brain areas): almost completely depletes microglia; also recorded: near complete microglia depletion | EAE clinical score / disease progression (MOG Peptide-Induced EAE): did not alter disease progression; also recorded: No difference | EAE disease onset/incidences (MOG Peptide-Induced EAE): similar | Weight change in EAE mice (MOG Peptide-Induced EAE): similar

From patent US20200093801A1, “NEW METHODS FOR THE TREATMENT OF MULTIPLE SCLEROSIS” (Novartis AG, priority 2017, published 2020)
